According to patent US20140357655A1, “SPIROINDOLINE DERIVATIVES AS GONADOTROPIN- RELEASING HORMONE RECEPTOR ANTAGONISTS” (Bayer Intellectual Property GmbH, priority 2012, published 2014):

These compounds were tested against T1, human GnRH receptor (Homo sapiens, UniProt P30968) (assay: IP-One HTRF assay with buserelin (at EC80) stimulation). Conditions: CHO cells stably expressing human GnRH receptor, read-out: Potency in IP-One HTRF assay, given as IC50.
T1 sequence (P30968 1-328): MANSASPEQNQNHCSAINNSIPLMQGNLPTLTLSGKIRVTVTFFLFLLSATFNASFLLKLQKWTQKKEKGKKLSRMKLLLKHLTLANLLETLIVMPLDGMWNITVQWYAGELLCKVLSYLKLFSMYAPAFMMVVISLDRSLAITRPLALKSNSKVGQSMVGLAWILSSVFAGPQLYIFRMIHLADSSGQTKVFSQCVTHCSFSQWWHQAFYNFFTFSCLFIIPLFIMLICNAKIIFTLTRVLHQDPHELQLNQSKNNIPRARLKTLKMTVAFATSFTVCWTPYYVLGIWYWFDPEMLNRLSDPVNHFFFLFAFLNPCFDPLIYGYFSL
Format: cell-based
Summary of the method: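 CHO cells stably expressing human GnRH receptor, preincubated 1 h at 37° C with IP1-d2, were exposed to compound and buserelin at EC80 for 1 h at 37° C. After lysis with Tb-anti-IP1 antibody (1 h, 22° C), 665/620 nm HTRF ratio read; 10 concentrations, 20 μM–1 nM, duplicates, 4-parameter IC50.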
For `COc1cccc(S(=O)(=O)N2c3ccc(C(=O)NCc4ccccc4Cl)cc3C3(CCS(=O)(=O)CC3)C2C2CC2)c1` (single isomer, unassigned) [Example 44.1, N-(2-chlorobenzyl)-2-cyclopropyl-1-[(3-methoxyphenyl)sulfonyl]-1,2,2′,3′,5′,6′-hexahydrospiro[indole-3,4′-thiopyran]-5-carboxamide 1′,1′-dioxide], the IC50 was 25 nM.
`COc1cccc(S(=O)(=O)N2c3ccc(C(=O)NCc4ccccc4Cl)cc3C3(CCS(=O)(=O)CC3)C2C2CC2)c1` (single isomer, unassigned) [Example 44.2, N-(2-chlorobenzyl)-2-cyclopropyl-1-[(3-methoxyphenyl)sulfonyl]-1,2,2′,3′,5′,6′-hexahydrospiro[indole-3,4′-thiopyran]-5-carboxamide 1′,1′-dioxide] was tested, and the IC50 was 302 nM.
With `COc1cccc(S(=O)(=O)N2c3ccc(C(=O)NCc4ncccc4C)cc3C3(CCS(=O)(=O)CC3)C2C2CC2)c1` (single isomer, unassigned) [Example 45.1, 2-cyclopropyl-1-[(3-methoxyphenyl)sulfonyl]-N-[(3-methylpyridin-2-yl)methyl]-1,2,2′,3′,5′,6′-hexahydrospiro[indole-3,4′-thiopyran]-5-carboxamide 1′,1′-dioxide] the IC50 was 253 nM.
`COc1cccc(S(=O)(=O)N2c3ccc(C(=O)NCc4ncccc4C)cc3C3(CCS(=O)(=O)CC3)C2C2CC2)c1` (single isomer, unassigned) [Example 45.2, 2-cyclopropyl-1-[(3-methoxyphenyl)sulfonyl]-N-[(3-methylpyridin-2-yl)methyl]-1,2,2′,3′,5′,6′-hexahydrospiro[indole-3,4′-thiopyran]-5-carboxamide 1′,1′-dioxide] was tested, and the IC50 was 4460 nM.
`COc1cccc(S(=O)(=O)N2c3ccc(C(=O)NCc4ccc(F)cc4Cl)cc3C3(CCS(=O)(=O)CC3)C2C2CC2)c1` (single isomer, unassigned) [Example 46.1, N-(2-chloro-4-fluorobenzyl)-2-cyclopropyl-1-[(3-methoxyphenyl)sulfonyl]-1,2,2′,3′,5′,6′-hexahydrospiro[indole-3,4′-thiopyran]-5-carboxamide 1′,1′-dioxide] showed an IC50 of 50 nM.
`COc1cccc(S(=O)(=O)N2c3ccc(C(=O)NCc4ccc(F)cc4Cl)cc3C3(CCS(=O)(=O)CC3)C2C2CC2)c1` (single isomer, unassigned) [Example 46.2, N-(2-chloro-4-fluorobenzyl)-2-cyclopropyl-1-[(3-methoxyphenyl)sulfonyl]-1,2,2′,3′,5′,6′-hexahydrospiro[indole-3,4′-thiopyran]-5-carboxamide 1′,1′-dioxide] gave an IC50 of 732 nM.
`COc1cccc(S(=O)(=O)N2c3ccc(C(=O)NCc4ccccc4F)cc3C3(CCS(=O)(=O)CC3)C2C2CC2)c1` (single isomer, unassigned) [Example 47.1, 2-cyclopropyl-N-(2-fluorobenzyl)-1-[(3-methoxyphenyl)sulfonyl]-1,2,2′,3′,5′,6′-hexahydrospiro[indole-3,4′-thiopyran]-5-carboxamide 1′,1′-dioxide] was tested, and the IC50 was 73 nM.
`COc1cccc(S(=O)(=O)N2c3ccc(C(=O)NCc4ccccc4F)cc3C3(CCS(=O)(=O)CC3)C2C2CC2)c1` (single isomer, unassigned) [Example 47.2, 2-cyclopropyl-N-(2-fluorobenzyl)-1-[(3-methoxyphenyl)sulfonyl]-1,2,2′,3′,5′,6′-hexahydrospiro[indole-3,4′-thiopyran]-5-carboxamide 1′,1′-dioxide] was tested, and the IC50 was 8870 nM.
`O=C(O)c1cccc(NC(=O)c2ccc3c(c2)C2(CCS(=O)(=O)CC2)C(C2CC2)N3S(=O)(=O)c2ccc(F)cc2)c1` (single isomer, unassigned) [Example 49.1, 3-[({2-cyclopropyl-1-[(4-fluorophenyl)sulfonyl]-1′,1′-dioxido-1,2,2′,3′,5′,6′-hexahydrospiro[indole-3,4′-thiopyran]-5-yl}carbonyl)amino]benzoic acid] was tested, and the IC50 was 40 nM.
In the case of `O=C(O)c1cccc(NC(=O)c2ccc3c(c2)C2(CCS(=O)(=O)CC2)C(C2CC2)N3S(=O)(=O)c2ccc(F)cc2)c1` (single isomer, unassigned) [Example 49.2, 3-[({2-cyclopropyl-1-[(4-fluorophenyl)sulfonyl]-1′,1′-dioxido-1,2,2′,3′,5′,6′-hexahydrospiro[indole-3,4′-thiopyran]-5-yl}carbonyl)amino]benzoic acid], the IC50 is reported as 109 nM.
`NC(=O)c1cccc(NC(=O)c2ccc3c(c2)C2(CCS(=O)(=O)CC2)C(C2CC2)N3S(=O)(=O)c2ccc(F)cc2)c1` (single isomer, unassigned) [Example 51.1, N-(3-carbamoylphenyl)-2-cyclopropyl-1-[(4-fluorophenyl)sulfonyl]-1,2,2′,3′,5′,6′-hexahydrospiro[indole-3,4′-thiopyran]-5-carboxamide 1′,1′-dioxide] gave an IC50 of 80 nM.
`NC(=O)c1cccc(NC(=O)c2ccc3c(c2)C2(CCS(=O)(=O)CC2)C(C2CC2)N3S(=O)(=O)c2ccc(F)cc2)c1` (single isomer, unassigned) [Example 51.2, N-(3-carbamoylphenyl)-2-cyclopropyl-1-[(4-fluorophenyl)sulfonyl]-1,2,2′,3′,5′,6′-hexahydrospiro[indole-3,4′-thiopyran]-5-carboxamide 1′,1′-dioxide] gave an IC50 of 1180 nM.
`COC(=O)c1cccc(S(=O)(=O)N2c3ccc(C(=O)NCc4ccccc4Cl)cc3C3(CCS(=O)(=O)CC3)C2C2CC2)c1` (single isomer, unassigned) [Example 60.1, methyl 3-({5-[(2-chlorobenzyl)carbamoyl]-2-cyclopropyl-1′,1′-dioxido-2′,3′,5′,6′-tetrahydrospiro[indole-3,4′-thiopyran]-1(2H)-yl}sulfonyl)benzoate] gave an IC50 of 55 nM.
`COC(=O)c1cccc(S(=O)(=O)N2c3ccc(C(=O)NCc4ccccc4Cl)cc3C3(CCS(=O)(=O)CC3)C2C2CC2)c1` (single isomer, unassigned) [Example 60.2, methyl 3-({5-[(2-chlorobenzyl)carbamoyl]-2-cyclopropyl-1′,1′-dioxido-2′,3′,5′,6′-tetrahydrospiro[indole-3,4′-thiopyran]-1(2H)-yl}sulfonyl)benzoate] gave an IC50 of 1140 nM.
`O=C(O)c1cccc(S(=O)(=O)N2c3ccc(C(=O)NCc4ccccc4Cl)cc3C3(CCS(=O)(=O)CC3)C2C2CC2)c1` (single isomer, unassigned) [Example 61.1, 3-({5-[(2-chlorobenzyl)carbamoyl]-2-cyclopropyl-1′,1′-dioxido-2′,3′,5′,6′-tetrahydrospiro[indole-3,4′-thiopyran]-1(2H)-yl}sulfonyl)benzoic acid] showed an IC50 of 84 nM.
With `O=C(O)c1cccc(S(=O)(=O)N2c3ccc(C(=O)NCc4ccccc4Cl)cc3C3(CCS(=O)(=O)CC3)C2C2CC2)c1` (single isomer, unassigned) [Example 61.2, 3-({5-[(2-chlorobenzyl)carbamoyl]-2-cyclopropyl-1′,1′-dioxido-2′,3′,5′,6′-tetrahydrospiro[indole-3,4′-thiopyran]-1(2H)-yl}sulfonyl)benzoic acid] the IC50 was 2010 nM.
With `COc1cccc(S(=O)(=O)N2c3ccc(C(=O)Nc4cccc(S(=O)(=O)N=C(N(C)C)N(C)C)c4)cc3C3(CCS(=O)(=O)CC3)C2C2CC2)c1` (single isomer, unassigned) [Example 62.1, N-(3-{[bis(dimethylamino)methylidene]sulfamoyl}phenyl)-2-cyclopropyl-1-[(3-methoxyphenyl)sulfonyl]-1,2,2′,3′,5′,6′-hexahydrospiro[indole-3,4′-thiopyran]-5-carboxamide 1′,1′-dioxide] the IC50 was 6430 nM.
Work on `COc1cccc(S(=O)(=O)N2c3ccc(C(=O)Nc4cccc(S(=O)(=O)N=C(N(C)C)N(C)C)c4)cc3C3(CCS(=O)(=O)CC3)C2C2CC2)c1` (single isomer, unassigned) [Example 62.2, N-(3-{[bis(dimethylamino)methylidene]sulfamoyl}phenyl)-2-cyclopropyl-1-[(3-methoxyphenyl)sulfonyl]-1,2,2′,3′,5′,6′-hexahydrospiro[indole-3,4′-thiopyran]-5-carboxamide 1′,1′-dioxide] yielded an IC50 of 4.8 nM.
Work on `O=C(Nc1ccon1)c1ccc2c(c1)C1(CCS(=O)(=O)CC1)C(C1CC1)N2S(=O)(=O)c1ccc(F)cc1` (single isomer, unassigned) [Example 63.1, 2-cyclopropyl-1-[(4-fluorophenyl)sulfonyl]-N-(1,2-oxazol-3-yl)-1,2,2′,3′,5′,6′-hexahydrospiro[indole-3,4′-thiopyran]-5-carboxamide 1′,1′-dioxide] yielded an IC50 of 88 nM.
Work on `O=C(Nc1ccon1)c1ccc2c(c1)C1(CCS(=O)(=O)CC1)C(C1CC1)N2S(=O)(=O)c1ccc(F)cc1` (single isomer, unassigned) [Example 63.2, 2-cyclopropyl-1-[(4-fluorophenyl)sulfonyl]-N-(1,2-oxazol-3-yl)-1,2,2′,3′,5′,6′-hexahydrospiro[indole-3,4′-thiopyran]-5-carboxamide 1′,1′-dioxide] yielded an IC50 of 3430 nM.
`CN(C)C(=NS(=O)(=O)c1cccc(NC(=O)c2ccc3c(c2)C2(CCS(=O)(=O)CC2)C(C2CC2)N3S(=O)(=O)c2ccc(F)cc2)c1)N(C)C` (single isomer, unassigned) [Example 64.1, N-(3-{[bis(dimethylamino)methylidene]sulfamoyl}phenyl)-2-cyclopropyl-1-[(4-fluorophenyl)sulfonyl]-1,2,2′,3′,5′,6′-hexahydrospiro[indole-3,4′-thiopyran]-5-carboxamide 1′,1′-dioxide] showed an IC50 of 4.6 nM.
